# Results: patent publication US10689383B2, “Optionally fused heterocyclyl-substituted derivatives of pyrimidine useful for the treatment of inflammatory, metabolic, oncologic and autoimmune diseases” (NUEVOLUTION A/S, priority 2014, dated 2020)
# Biological target: T1, human RORγt (Ligand Binding Domain) (Homo sapiens, UniProt P51449)
# T1 construct: purchased Crelux (Planegg, Germany) batch no PC5032-1
# T1 sequence (P51449 269-508 limits assumed): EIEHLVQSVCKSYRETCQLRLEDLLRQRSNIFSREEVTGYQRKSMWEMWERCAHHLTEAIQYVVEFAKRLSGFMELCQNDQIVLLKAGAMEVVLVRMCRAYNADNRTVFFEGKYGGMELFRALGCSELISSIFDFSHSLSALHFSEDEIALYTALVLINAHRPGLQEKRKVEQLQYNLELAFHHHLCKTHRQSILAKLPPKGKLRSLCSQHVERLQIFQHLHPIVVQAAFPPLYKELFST
# Experiment: Fluorescence Polarization (FP) Assay
# Conditions: not given
# Experimental: The activity of the compounds was evaluated using a Fluorescence Polarization (FP) Assay and, in most cases, a Th17 Assay and/or RORγ Reporter assay (also referred to as Gal4 assay). The FP assay is an in vitro assay monitoring binding within the ligand binding pocket. The RORγ and the Th17 assays are both cell-based assays monitoring functional activity of the compound assayed.
# The total volume was 25 μl, in a black Perkin Elmer OptiPlate. As negative control, 1 μl DMSO was used. […] The probe is a fluorescently labeled (TAMRA) RORγt ligand identified by Nuevolution with a total molecular weight of 910 g/mole as shown in Graph A in FIG. 1.
row,SMILES,IC50 [µM]
1,"Oc1cc(CNc2ncnc(N3CCCC3c3ccc(C(F)(F)F)cc3)c2F)on1 (stereo not shown) [Example 216, 5-[[[5-fluoro-6-[2-[4-(trifluoromethyl)phenyl]pyrrolidin-1-yl]pyrimidin-4-yl]amino]methyl]isoxazol-3-ol]",< 10

# Same assay, conditions: Fluorescence Polarization (FP) Assay; values given as upper bounds of activity ranges; read-out: FP activity range
row,SMILES,IC50 [µM]
1,"CNC(=O)c1cccc(CNc2ncnc(N3CCCC3c3ccc(C(F)(F)F)cc3)c2F)c1 (stereo not shown) [Example 144, 3-[[[5-fluoro-6-[2-[4-(trifluoromethyl)phenyl]pyrrolidin-1-yl]pyrimidin-4-yl]amino]methyl]-N-methyl-benzamide]",< 10
2,"CN(C)C(=O)c1cccc(CNc2ncnc(N3CCCC3c3ccc(C(F)(F)F)cc3)c2F)c1 (stereo not shown) [Example 145, 3-[[[5-fluoro-6-[2-[4-(trifluoromethyl)phenyl]pyrrolidin-1-yl]pyrimidin-4-yl]amino]methyl]-N,N-dimethyl-benzamide]",< 10
3,"Fc1c(NCc2cccc(Cn3cncn3)c2)ncnc1N1CCCC1c1ccc(C(F)(F)F)cc1 (stereo not shown) [Example 146, 5-fluoro-N-[[3-(1,2,4-triazol-1-ylmethyl)phenyl]methyl]-6-[2-[4-(trifluoromethyl)phenyl]pyrrolidin-1-yl]pyrimidin-4-amine]",< 2
4,"COCc1cccc(CNc2ncnc(N3CCCC3c3ccc(C(F)(F)F)cc3)c2F)c1 (stereo not shown) [Example 147, 5-fluoro-N-[[3-(methoxymethyl)phenyl]methyl]-6-[2-[4-(trifluoromethyl)phenyl]pyrrolidin-1-yl]pyrimidin-4-amine]",< 2
5,"Cc1ccc(CNc2ncnc(N3CCCC3c3ccc(C)o3)c2F)cn1 (stereo not shown) [Example 150, 5-fluoro-6-[2-(5-methyl-2-furyl)pyrrolidin-1-yl]-N-[(6-methyl-3-pyridyl)methyl]pyrimidin-4-amine]",< 10
6,"Fc1c(NCC2CCC2)ncnc1N1CCCC1c1ccc(C(F)(F)F)cc1 (stereo not shown) [Example 151, N-(cyclobutylmethyl)-5-fluoro-6-[2-[4-(trifluoromethyl)phenyl]pyrrolidin-1-yl]pyrimidin-4-amine]",< 10
7,"Fc1c(NCC2CCOC2)ncnc1N1CCC[C@@H]1c1ccc(C(F)(F)F)cc1 (stereo partly drawn) [Example 154, 5-fluoro-N-(tetrahydrofuran-3-ylmethyl)-6-[(2R)-2-[4-(trifluoromethyl)phenyl]pyrrolidin-1-yl]pyrimidin-4-amine]",< 0.5
8,"Fc1c(NCC2CCCCO2)ncnc1N1CCC[C@@H]1c1ccc(C(F)(F)F)cc1 (stereo partly drawn) [Example 155, 5-fluoro-N-(tetrahydropyran-2-ylmethyl)-6-[(2R)-2-[4-(trifluoromethyl)phenyl]pyrrolidin-1-yl]pyrimidin-4-amine]",< 10
9,"Fc1c(NCC2CCCS2)ncnc1N1CCC[C@@H]1c1ccc(C(F)(F)F)cc1 (stereo partly drawn) [Example 159, 5-fluoro-N-(tetrahydrothiophen-2-ylmethyl)-6-[(2R)-2-[4-(trifluoromethyl)phenyl]pyrrolidin-1-yl]pyrimidin-4-amine]",< 2
10,"CC1(C)CCC(CNc2ncnc(N3CCC[C@@H]3c3ccc(C(F)(F)F)cc3)c2F)CC1 [Example 166, N-[(4,4-dimethylcyclohexyl)methyl]-5-fluoro-6-[(2R)-2-[4-(trifluoromethyl)phenyl]pyrrolidin-1-yl]pyrimidin-4-amine]",< 0.5
11,"O=S1(=O)CCCC1CNc1ncnc(N2CCC[C@@H]2c2ccc(C(F)(F)F)cc2)c1F (stereo partly drawn) [Example 170, N-[(1,1-dioxothiolan-2-yl)methyl]-5-fluoro-6-[(2R)-2-[4-(trifluoromethyl)phenyl]pyrrolidin-1-yl]pyrimidin-4-amine]",< 10
12,"CC(C)(C)C1OCCCC1CNc1ncnc(N2CCC[C@@H]2c2ccc(C(F)(F)F)cc2)c1F (stereo partly drawn) [Example 175, N-[(2-tert-butyltetrahydropyran-3-yl)methyl]-5-fluoro-6-[(2R)-2-[4-(trifluoromethyl)phenyl]pyrrolidin-1-yl]pyrimidin-4-amine]",< 10
13,"CC(C)C1CCC(CNc2ncnc(N3CCC[C@@H]3c3ccc(C(F)(F)F)cc3)c2F)CC1 (stereo partly drawn) [Example 178, 5-fluoro-N-[(4-isopropylcyclohexyl)methyl]-6-[(2R)-2-[4-(trifluoromethyl)phenyl]pyrrolidin-1-yl]pyrimidin-4-amine]",< 0.5
14,"Fc1c(NCC2CCCO2)ncnc1N1CCC[C@@H]1c1ccc(C(F)(F)F)cc1 (stereo partly drawn) [Example 181, 5-fluoro-N-(tetrahydrofuran-2-ylmethyl)-6-[(2R)-2-[4-(trifluoromethyl)phenyl]pyrrolidin-1-yl]pyrimidin-4-amine]",< 10
15,"O=S1(=O)CCC(CNc2ncnc(N3CCC[C@@H]3c3ccc(C(F)(F)F)cc3)c2F)C1 (stereo partly drawn) [Example 184, N-[(1,1-dioxothiolan-3-yl)methyl]-5-fluoro-6-[(2R)-2-[4-(trifluoromethyl)phenyl]pyrrolidin-1-yl]pyrimidin-4-amine]",< 0.5
16,"[O-][n+]1cccc(CNc2ncnc(N3CCC[C@@H]3c3ccc(C(F)(F)F)cc3)c2F)c1 [Example 193, 5-fluoro-N-[(1-oxidopyridin-1-ium-3-yl)methyl]-6-[(2R)-2[4-(trifluoromethyl)phenyl]pyrrolidin-1-yl]pyrimidin-4-amine]",< 10
17,"[O-][n+]1ccc(CNc2ncnc(N3CCC[C@@H]3c3ccc(C(F)(F)F)cc3)c2F)cc1 [Example 194, 5-fluoro-N-[(1-oxidopyridin-1-ium-4-yl)methyl]-6-[(2R)-2-[4-(trifluoromethyl)phenyl]pyrrolidin-1-yl]pyrimidin-4-amine]",< 2
18,"COC1CC(c2ccc(C(F)(F)F)cc2)N(c2ncnc(NCc3ccc(C)nc3)c2F)C1 (stereo not shown) [Example 212, 5-fluoro-6-[4-methoxy-2-[4-(trifluoromethyl)phenyl]pyrrolidin-1-yl]-N-[(6-methyl-3-pyridyl)methyl]pyrimidin-4-amine]",< 10
19,"Cc1cnc(CNc2ncnc(N3CCCC3c3ccc(C(F)(F)F)cc3)c2F)o1 (stereo not shown) [Example 213, 5-fluoro-N-[(5-methyloxazol-2-yl)methyl]-6-[2-[4-(trifluoromethyl)phenyl]pyrrolidin-1-yl]pyrimidin-4-amine]",< 10
20,"Oc1nnc(CNc2ncnc(N3CCCC3c3ccc(C(F)(F)F)cc3)c2F)o1 (stereo not shown) [Example 214, 5-(((5-fluoro-6-(2-(4-(trifluoromethyl)phenyl)pyrrolidin-1-yl)pyrimidin-4-yl)amino)methyl)-1,3,4-oxadiazol-2-ol]",< 10
21,"CCC(Nc1ncnc(N2CCCC2c2ccc(C(F)(F)F)cc2)c1F)c1noc(C)n1 (stereo not shown) [Example 215, 5-fluoro-N-[1-(5-methyl-1,2,4-oxadiazo1-3-yl)propyl]-6-[2-[4-(trifluoromethyl)phenyl]pyrrolidin-1-yl]pyrimidin-4-amine]",< 10
22,"OCc1cccc(CNc2ncnc(N3CCC[C@@H]3c3ccc(C(F)(F)F)cc3)c2F)c1 [Example 217, [3-[[[5-fluoro-6-[(2R)-2-[4-(trifluoromethyl)phenyl]pyrrolidin-1-yl]pyrimidin-4-yl]amino]methyl]phenyl]methanol]",< 10
23,"Fc1c(NCC2CCCC2)ncnc1N1CCC[C@@H]1c1ccc(C(F)(F)F)cc1 [Example 218, N-(cyclopentylmethyl)-5-fluoro-6-[(2R)-2-[4-(trifluoromethyl)phenyl]pyrrolidin-1-yl]pyrimidin-4-amine]",< 10
24,"CS(=O)(=O)c1ccc(CNc2ncnc(N3CCC[C@@H]3c3ccc(C(F)(F)F)cc3)c2F)cc1 [Example 219, 5-fluoro-N-[(4-methylsulfonylphenyl)methyl]-6-[(2R)-2-[4-(trifluoromethyl)phenyl]pyrrolidin-1-yl]pyrimidin-4-amine]",< 10
